Results taken from PMC2014744, “A novel p38α MAPK inhibitor suppresses brain proinflammatory cytokine up-regulation and attenuates synaptic dysfunction and behavioral deficits in an Alzheimer's disease mouse model” (Journal of Neuroinflammation, 2007).
Converted amounts (≈) assume the structure as drawn. “Also recorded” adds a separate entry of the source. One block for each compound: values may come before it.

How the values were obtained:
[1] = tested on: C57Bl/6 mice infused ICV with human oligomeric Aβ1–42; assay: AD mouse model (ICV infusion of human oligomeric Aβ1–42): hippocampal protein levels by ELISA; format: in vivo; settings: 2.5 mg/kg oral once daily for 2 weeks from day 21 after start of Aβ infusion; day 60
Procedure: (§1) The four-week intracerebroventricular (ICV) infusion of human oligomeric Aβ1-42 or Hepes/HDL vehicle into C57Bl/6 mice was done as previously described. Mice were administered by oral gavage either […] (2.5 mg/kg) or solvent control (DMSO) in a 0.5% (w/v) carboxymethylcellulose suspension. Compound administration began at day 21 after the start of Aβ infusion, and continued on a once daily administration schedule for 14 days. Beginning at day 50 after the start of Aβ infusion, the Y-maze test of spontaneous alternation was done once daily for 10 days to evaluate hippocampal-dependent spatial learning as described previously. At day 60, mice were anesthetized, perfused, and sacrificed as previously described. Hippocampal extract supernatants were prepared by dounce and sonication, followed by centrifugation as described previously. Levels of the proinflammatory cytokines IL-1β and TNFα in hippocampal supernatants were measured by ELISA (Biosource International) per the manufacturer's instructions. S100B and synaptophysin levels were measured by ELISA as previously described.

MKK7β = target: T1, MKK7β (Homo sapiens, UniProt O14733); assay: Millipore/Upstate kinase profiling: MKK7β; format: biochemical; settings: 20 μM compound; 90 μM ATP; activity without inhibitor = 100%
T1 construct: purchased Millipore (KinaseProfiler kinase screening service)
T1 sequence (O14733 1-419): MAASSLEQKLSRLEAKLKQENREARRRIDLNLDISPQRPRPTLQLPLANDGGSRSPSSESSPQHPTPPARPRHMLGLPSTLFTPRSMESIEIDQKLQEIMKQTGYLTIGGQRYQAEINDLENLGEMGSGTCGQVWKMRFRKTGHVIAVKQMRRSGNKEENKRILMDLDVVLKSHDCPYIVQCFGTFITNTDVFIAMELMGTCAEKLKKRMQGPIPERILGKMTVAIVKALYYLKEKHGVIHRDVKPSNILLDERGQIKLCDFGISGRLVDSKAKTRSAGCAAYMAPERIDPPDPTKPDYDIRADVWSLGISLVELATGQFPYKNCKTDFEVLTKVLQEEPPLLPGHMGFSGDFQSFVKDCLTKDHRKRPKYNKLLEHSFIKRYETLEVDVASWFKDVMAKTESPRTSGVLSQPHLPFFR

[2] = tested on: 44 other purified protein kinases; assay: Millipore kinase screen, summary for the non-p38 kinases; format: biochemical; settings: 20 μM compound, Table 1
Procedure: (§3) Enzyme activity assays were done in a final volume of 50 μl and each point was tested in duplicate. […] When compounds were tested for kinase inhibitory activity, 10X stock solutions of compounds were prepared in DMSO or water, and control samples contained the same final concentration of solvent as the samples containing compound. Data are expressed as percent of the maximal enzyme activity, where enzyme activity in the absence of compound is taken as 100%. IC50 values were calculated by a nonlinear regression data analysis using Microsoft Excel. Selectivity against pathway or structurally related protein kinases was done using purified kinases and standard in vitro assays described previously [69, 70], and included use of the Millipore (Billerica, MA) kinase screening service at 20 μM final concentration of 069A and 90 μM final concentration of ATP.

[3] = Oral bioavailability: compound in plasma after oral gavage; format: in vivo, C57Bl/6 mice; settings: mice, 2.5 mg/kg oral gavage; earliest time point analyzed
Procedure: (§2) Analysis of oral bioavailability (concentration of compound in the blood as a function of time after oral administration) and brain uptake was done by a modification of that previously described. Briefly, 069A (2.5 mg/kg) was administered to C57Bl/6 mice by oral gavage in a 0.5% (w/v) carboxymethylcellulose suspension. At 5, 15, 30, 60, and 120 min after compound administration, blood was collected in heparinized tubes from anesthetized animals and plasma obtained by centrifugation. After perfusion, brains were harvested, homogenized in 0.1% formic acid and deproteinized with ice-cold acetonitrile. After centrifugation to remove precipitated protein, the brain homogenate supernatants were further diluted with 0.1% formic acid. The plasma samples were acidified by diluting with 0.1% formic acid (1:3, v:v). Solid phase extraction followed by HPLC analysis was used to quantify the amount of compound in the plasma and brain supernatants, with compound MW01-6-189WH used as an internal standard. Briefly, 30 mg cartridges (Oasis® HLB, Waters) were conditioned with 1 mL of acetonitrile and equilibrated with 1 mL of water. Acidified samples were loaded onto the cartridge followed by a 1 mL wash with 5% acetonitrile. Compound was eluted from the cartridge using 100% acetonitrile. The eluate was evaporated to dryness, reconstituted in 60% acetonitrile/0.1% formic acid/water and analyzed by HPLC. […]

C57Bl/6 mice = assay: Liver toxicity screen (histology after two weeks of daily oral dosing); format: in vivo; settings: 2.5 mg/kg oral gavage once daily for 2 weeks
Procedure: Screening for histological liver injury after chronic, therapeutic dose administration of compound was done as previously described. Briefly, C57Bl/6 mice were administered by oral gavage either […] (2.5 mg/kg) or solvent control (DMSO) in a 0.5% (w/v) carboxymethylcellulose suspension. Compound or vehicle administration was once daily for two weeks. Livers were then removed, fixed in 4% (v/v) paraformaldehyde, and paraffin-embedded for histology. To assess histological toxicity, 4 μm liver sections were stained with haematoxylin and eosin. Two independent observers blinded to the treatment groups performed microscopic assessment of the tissue for injury by using a semi-quantitative histological scoring system that considers architecture features (normal to extensive fibrosis), cellular features (normal to extensive edema and widespread necrosis), and degree of inflammatory infiltrate (normal to extensive infiltrate).

[4] = Stability in human liver microsomes; format: in vitro ADME; settings: 5 μM compound; for metabolic stability in human liver microsomes compared with 069A (in words): Fig. 4D, 10 or 30 min incubation
Procedure: Briefly, triplicate reaction mixtures contained 0.1 M potassium phosphate buffer (pH 7.4) and a final concentration of the following components: 1 – 1.6 mg/ml total microsomal protein, 5 μM test compound, 1.3 mM NADPH, 3.3 mM MgCl2, 0.4 U/ml glucose-6-phosphate dehydrogenase, and 3.3 mM glucose-6-phosphate in a total volume of 300 μl. Mixtures were incubated at 37°C for 10 or 30 minutes. […] HPLC was performed as described above with 0.1% (v/v) formic acid in water as reagent A and acetonitrile with 0.1% (v/v) formic acid in water as reagent B. Peak quantification was done based upon absorption measurements at 260 nm relative to a standard curve obtained by serial dilutions of compounds.

MKK4 = target: T2, MKK4 (Mus musculus, UniProt P47809); assay: Millipore/Upstate kinase profiling: MKK4; format: biochemical; settings: 20 μM compound; 90 μM ATP; activity without inhibitor = 100%
T2 construct: purchased Millipore (KinaseProfiler kinase screening service)
T2 sequence (P47809 1-397): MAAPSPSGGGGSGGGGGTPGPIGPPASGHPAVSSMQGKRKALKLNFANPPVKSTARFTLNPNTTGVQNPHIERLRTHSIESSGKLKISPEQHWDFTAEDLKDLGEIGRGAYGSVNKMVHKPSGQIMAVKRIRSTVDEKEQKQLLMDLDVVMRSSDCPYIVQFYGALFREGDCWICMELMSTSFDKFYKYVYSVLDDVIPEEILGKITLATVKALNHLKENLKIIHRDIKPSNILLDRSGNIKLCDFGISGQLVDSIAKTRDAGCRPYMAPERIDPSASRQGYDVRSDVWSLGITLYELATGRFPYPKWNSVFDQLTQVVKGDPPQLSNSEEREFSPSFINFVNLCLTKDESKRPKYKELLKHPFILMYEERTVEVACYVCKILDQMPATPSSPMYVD

p38β = target: T3, p38β (Homo sapiens, UniProt Q15759); assay: Millipore/Upstate kinase profiling: p38β; format: biochemical; settings: 20 μM compound
T3 construct: purchased Millipore (KinaseProfiler kinase screening service)
Procedure: as §3

[5] = tested on: C57Bl/6 mice infused ICV with human oligomeric Aβ1–42; assay: AD mouse model (ICV infusion of human oligomeric Aβ1–42): Y-maze spontaneous alternation; format: in vivo; settings: 2.5 mg/kg oral once daily for 2 weeks from day 21; Y-maze days 50-60
Procedure: as §1

[6] = Lipophilicity determination (log P), shake-flask; format: physicochemical; settings: 1-octanol/water shake-flask, 25°C
Procedure: The partition coefficient was determined by the shake-flask method. The starting solution (0.3 mg/mL) of analyzed compound was prepared in presaturated 1-octanol (Sigma-Aldrich, St. Louis, MO). 1 mL of the octanol phase was agitated on a plate shaker with 10 mL of presaturated Milli-Q water for 2 hrs at 25°C. After partitioning, 1 mL of the aqueous phase was centrifuged in a microfuge for 10 min at 16,000 × g. 20 μL of the sample were analyzed with reversed-phase HPLC as described above to determine the concentration of the aqueous phase (caq). The log P is calculated according to the formula: log P = log10 [(0.3 – caq)/caq].

[7] = Aqueous solubility determination (log S); format: physicochemical; settings: thermodynamic from solid, Milli-Q water, 22°C
Procedure: For aqueous solubility (log S) determination, compound 069A was weighed on a Sartorius AG (Goettingen, Germany) analytical balance, and Milli-Q water was added to create an oversaturated solution (suspension). Sample tubes were stirred for 24 hrs at ambient temperature (t = 22°C). 1 mL of the samples were centrifuged in a microfuge at 16,000 × g for 10 min, and 20 μL was subjected to reverse-phase HPLC analysis to determine the concentration of the compound (caq). The concentration of compound in the aqueous phase (caq) was determined by peak detection at 254 nm at the appropriate retention time relative to a standard curve obtained from serial dilutions of the compound. The log S was calculated as common logarithm (log10) of caq.

[8] = Brain uptake: compound in brain homogenate after oral gavage; format: in vivo, C57Bl/6 mice; settings: mice, 2.5 mg/kg oral gavage; brain homogenate after perfusion
Procedure: as §2

p38α/SAPK2α = target: T4, p38α/SAPK2α (Homo sapiens, UniProt Q16539); assay: In vitro p38α MAPK protein kinase assay (myelin basic protein phosphorylation, 32P-ATP); format: biochemical; settings: Fig. 3B; for p38α MAPK inhibitory activity (in words): increasing concentrations of compound; for fold less active than 069A as p38α MAPK inhibitor: relative to 069A
T4 construct: purchased Millipore (Billerica, MA)
Procedure: Concentration-dependent inhibition of protein kinase activity was done essentially as previously described. Active p38α/SAPK2α enzyme was obtained from Millipore (Billerica, MA), and bovine myelin basic protein substrate was obtained from Sigma-Aldrich (St. Louis, MO). Enzyme activity assays were done in a final volume of 50 μl and each point was tested in duplicate. Assays were done by incubation with 0.33 mg/ml (18 μM) myelin basic protein, 100 μM ATP and γ-[^32P]ATP (specific activity > 300 cpm/pmol) in assay buffer (50 mM HEPES, pH 7.5, 5 mM MgCl2, 150 mM KCl, 15 mM NaCl, 1 mM DTT). Reactions were initiated by addition of the active p38α kinase at a final concentration of 2 μg/ml, and incubated for 10 min at 30°C. […] When compounds were tested for kinase inhibitory activity, 10X stock solutions of compounds were prepared in DMSO or water, and control samples contained the same final concentration of solvent as the samples containing compound. Data are expressed as percent of the maximal enzyme activity, where enzyme activity in the absence of compound is taken as 100%. IC50 values were calculated by a nonlinear regression data analysis using Microsoft Excel. Selectivity against pathway or structurally related protein kinases was done using purified kinases and standard in vitro assays described previously, and included use of the Millipore (Billerica, MA) kinase screening service at 20 μM final concentration of 069A and 90 μM final concentration of ATP.

[9] = cited from earlier work
p38α MAPK = settings: background statement, no reference given; cited from earlier work

T4 sequence (Q16539 whole entry): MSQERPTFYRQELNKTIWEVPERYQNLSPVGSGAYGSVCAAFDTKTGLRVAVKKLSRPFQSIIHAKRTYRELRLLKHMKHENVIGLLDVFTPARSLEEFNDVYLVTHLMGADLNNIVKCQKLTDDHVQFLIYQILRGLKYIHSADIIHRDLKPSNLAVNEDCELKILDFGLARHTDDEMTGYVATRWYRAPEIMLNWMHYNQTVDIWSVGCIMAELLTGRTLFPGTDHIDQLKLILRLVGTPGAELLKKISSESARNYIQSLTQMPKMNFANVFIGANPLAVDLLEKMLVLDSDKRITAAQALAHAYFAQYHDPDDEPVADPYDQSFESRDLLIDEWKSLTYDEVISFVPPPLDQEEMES
T3 sequence (Q15759 whole entry): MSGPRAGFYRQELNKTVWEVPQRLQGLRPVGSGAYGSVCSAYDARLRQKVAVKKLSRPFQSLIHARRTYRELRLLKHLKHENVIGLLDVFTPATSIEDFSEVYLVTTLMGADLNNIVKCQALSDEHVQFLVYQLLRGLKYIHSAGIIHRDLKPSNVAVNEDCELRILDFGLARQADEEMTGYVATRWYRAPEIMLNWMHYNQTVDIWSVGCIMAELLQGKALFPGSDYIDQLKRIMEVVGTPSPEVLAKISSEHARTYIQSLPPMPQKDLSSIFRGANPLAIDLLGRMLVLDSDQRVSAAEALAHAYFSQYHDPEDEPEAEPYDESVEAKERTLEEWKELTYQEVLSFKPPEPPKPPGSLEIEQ

SMILES: c1ccc(-c2nnc(N3CCN(c4ncccn4)CC3)cc2-c2ccncc2)cc1 [MW01-2-069A-SRM]
Aβ-induced loss of synaptophysin in hippocampal extracts [1]: attenuates this loss of synaptophysin | Aβ-induced overproduction of IL-1β in hippocampal extracts [1]: significantly reduced | Aβ-induced overproduction of S100B in hippocampal extracts [1]: significantly reduced | Aβ-induced overproduction of TNFα in hippocampal extracts [1]: significantly reduced | % kinase activity (MKK7β) (MKK7β): 103% | inhibition of 44 other purified protein kinases (in words) [2]: little or no inhibition | time at which compound is detected in plasma after oral administration [3]: ≤ 5 min | adverse clinical effects during treatment (C57Bl/6 mice): no adverse clinical effects | histological liver injury (C57Bl/6 mice; compared with vehicle, 2.5 mg/kg): did not induce any histological indices of liver tissue injury; also recorded: no significant liver toxicity | compound remaining after incubation with human liver microsomes ([4]; 10 min incubation, 37°C): ~ 70% | % kinase activity (MKK4) (MKK4): 117% | % kinase activity (p38β) (p38β; 90 μM ATP, activity without inhibitor = 100%): 30% | inhibition of p38β (in words) (p38β; Millipore screen): partial inhibition | Aβ-induced Y-maze behavioral deficit [5]: ameliorates the Y-maze behavioral deficit | logP at 2 h [6]: 3.18 | solubility at 24 h [7]: 9.54 µg/mL (≈ 24.1 µM) | time at which compound appears in brain after oral administration [8]: ≤ 5 min | time of peak brain concentration after oral administration [8]: 5 to 15 min

SMILES: Cc1cc(-c2ccccc2)nnc1NCCN1CCOCC1 [Minaprine]
metabolic stability in human liver microsomes compared with 069A (in words) [4]: it is more stable than the structurally related, clinical CNS drug Minaprine

SMILES: Cc1cc(-c2ccccc2)nnc1N1CCN(c2ncccn2)CC1 [Minozac]
blood-brain barrier penetrance [9]: good blood-brain barrier penetrance | p38α MAPK inhibition (in words) (p38α MAPK): not an inhibitor | metabolic stability in human liver microsomes compared with 069A (in words) [4]: 069A is not as metabolically stable as Minozac

More lines, main results first:

p38α MAPK inhibitory activity (in words) (p38α/SAPK2α): lacks inhibitory activity | fold less active than 069A as p38α MAPK inhibitor (p38α/SAPK2α): > 100 fold
SMILES: c1ccc(-c2ccc(N3CCN(c4ncccn4)CC3)nn2)cc1 [MW01-3-183WH, 3-phenyl-6-(4-(pyrimidin-2-yl)piperazin-1-yl)pyridazine]

p38α MAPK inhibitory activity (in words) (p38α/SAPK2α): major loss of activity | fold less active than 069A as p38α MAPK inhibitor (p38α/SAPK2α): > 100 fold
SMILES: c1ccc(-c2nnc(N3CCN(c4ncccn4)CC3)cc2-c2cccnc2)cc1 [MW01-4-119SRM, 3-phenyl-4-(pyridin-3-yl)-6-(4-(pyrimidin-2-yl)piperazin-1-yl)pyridazine]

fold less active than 069A as p38α MAPK inhibitor (p38α/SAPK2α): > 100 fold
SMILES: c1ccc(-c2cc(-c3ccncc3)c(N3CCN(c4ncccn4)CC3)nn2)cc1 [MW01-6-189WH]
p38α MAPK inhibitory activity (in words) (p38α/SAPK2α): does not generate MAPK inhibitory activity
